Source: ChEMBL document CHEMBL1201862, “PubChem BioAssay data set” (2004)
Activity calls are given as the source filed them.

Legend:
[1] = target: T1, Calpain-2 catalytic subunit (Sus scrofa, UniProt P43367); test: m-calpain protease blockers, concentration series – biochemical, fluorogenic peptide substrate, dose response (AID 1420); type: functional
T1 sequence (P43367 whole entry): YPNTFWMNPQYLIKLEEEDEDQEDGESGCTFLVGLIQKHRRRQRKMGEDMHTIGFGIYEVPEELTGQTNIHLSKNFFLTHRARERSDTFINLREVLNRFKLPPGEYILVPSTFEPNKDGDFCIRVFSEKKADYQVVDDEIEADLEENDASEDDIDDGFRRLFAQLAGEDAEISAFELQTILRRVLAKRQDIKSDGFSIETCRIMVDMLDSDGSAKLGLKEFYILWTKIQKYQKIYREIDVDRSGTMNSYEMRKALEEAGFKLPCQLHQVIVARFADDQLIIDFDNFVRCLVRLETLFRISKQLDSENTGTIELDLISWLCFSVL

[2] = Luminescence Cell-Based Dose Retest to Confirm Inhibitors of Cancer Stem Cells. [Related pubchem assays (depositor defined):AID2717, AID2721]; type: functional; settings: Homo sapiens
[3] = target: Cytochrome P450 2C19 (Homo sapiens, UniProt P33261); test: Cytochrome panel assay with activity outcomes. Panel member name: p450-cyp2c19 Compounds with AC50 equal or less than 10 uM are considered active; type: functional; settings: read-out: AC50
[4] = target: T2, Protein skinhead-1 (Caenorhabditis elegans, UniProt P34707); type: functional
T2 sequence (P34707 whole entry): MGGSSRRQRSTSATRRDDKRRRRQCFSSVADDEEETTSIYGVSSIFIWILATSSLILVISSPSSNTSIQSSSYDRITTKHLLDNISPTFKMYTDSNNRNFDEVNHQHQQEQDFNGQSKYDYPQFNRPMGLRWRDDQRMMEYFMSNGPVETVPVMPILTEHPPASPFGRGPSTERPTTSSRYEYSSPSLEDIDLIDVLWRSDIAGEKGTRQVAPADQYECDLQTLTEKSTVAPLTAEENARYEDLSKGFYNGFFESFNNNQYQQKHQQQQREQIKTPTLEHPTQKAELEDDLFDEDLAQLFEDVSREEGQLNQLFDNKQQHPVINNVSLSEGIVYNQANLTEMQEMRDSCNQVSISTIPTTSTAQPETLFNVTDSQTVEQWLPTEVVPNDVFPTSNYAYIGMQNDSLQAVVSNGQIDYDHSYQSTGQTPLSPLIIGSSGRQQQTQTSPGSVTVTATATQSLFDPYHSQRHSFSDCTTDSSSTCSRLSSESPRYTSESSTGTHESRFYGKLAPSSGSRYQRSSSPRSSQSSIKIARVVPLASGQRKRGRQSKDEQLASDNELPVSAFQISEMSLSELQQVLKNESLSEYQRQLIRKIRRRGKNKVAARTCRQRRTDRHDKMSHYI

[5] = target: Cytochrome P450 3A4 (Homo sapiens, UniProt P08684);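 further: CYP3A4 tested as one member of a cytochrome P450 panel screen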
[6] = target: T3, Corticotropin-releasing factor receptor 2/Corticotropin-releasing factor-binding protein (Homo sapiens, UniProt P24387+Q13324); test: activators of CRF receptor 2 with binding protein – uHTS hits, confirmation (AID 602473); type: functional; settings: read-out: EC50_Mean
T3 sequence (Q13324 whole entry): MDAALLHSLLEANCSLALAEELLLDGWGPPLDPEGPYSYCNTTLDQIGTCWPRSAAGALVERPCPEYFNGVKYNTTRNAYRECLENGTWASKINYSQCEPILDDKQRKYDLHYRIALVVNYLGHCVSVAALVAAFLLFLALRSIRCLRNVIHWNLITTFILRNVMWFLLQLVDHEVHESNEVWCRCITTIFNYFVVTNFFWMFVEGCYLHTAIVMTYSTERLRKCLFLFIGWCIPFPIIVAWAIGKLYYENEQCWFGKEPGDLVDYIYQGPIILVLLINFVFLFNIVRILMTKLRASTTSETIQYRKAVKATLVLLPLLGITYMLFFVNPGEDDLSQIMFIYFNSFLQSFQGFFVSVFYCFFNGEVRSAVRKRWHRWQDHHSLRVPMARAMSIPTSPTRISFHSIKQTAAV
T3 sequence (P24387 whole entry): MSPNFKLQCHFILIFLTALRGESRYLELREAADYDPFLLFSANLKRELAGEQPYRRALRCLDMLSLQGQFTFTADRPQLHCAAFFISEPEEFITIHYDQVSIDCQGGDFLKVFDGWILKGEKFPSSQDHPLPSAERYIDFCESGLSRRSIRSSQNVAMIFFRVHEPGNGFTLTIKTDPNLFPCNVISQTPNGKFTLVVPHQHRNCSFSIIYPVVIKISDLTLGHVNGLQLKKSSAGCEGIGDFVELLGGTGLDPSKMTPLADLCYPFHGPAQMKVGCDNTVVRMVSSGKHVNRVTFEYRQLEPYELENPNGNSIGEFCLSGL

[7] = cells; type: functional
[8] = target: Cytochrome P450 2D6 (Homo sapiens, UniProt P10635);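 further: CYP2D6 member of a cytochrome P450 panel assay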
[9] = target: T4, Cytochrome P450 1A2 (Homo sapiens, UniProt P05177);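 further: PubChem cytochrome P450 panel assay, CYP1A2 panel member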
T4 sequence (P05177 whole entry): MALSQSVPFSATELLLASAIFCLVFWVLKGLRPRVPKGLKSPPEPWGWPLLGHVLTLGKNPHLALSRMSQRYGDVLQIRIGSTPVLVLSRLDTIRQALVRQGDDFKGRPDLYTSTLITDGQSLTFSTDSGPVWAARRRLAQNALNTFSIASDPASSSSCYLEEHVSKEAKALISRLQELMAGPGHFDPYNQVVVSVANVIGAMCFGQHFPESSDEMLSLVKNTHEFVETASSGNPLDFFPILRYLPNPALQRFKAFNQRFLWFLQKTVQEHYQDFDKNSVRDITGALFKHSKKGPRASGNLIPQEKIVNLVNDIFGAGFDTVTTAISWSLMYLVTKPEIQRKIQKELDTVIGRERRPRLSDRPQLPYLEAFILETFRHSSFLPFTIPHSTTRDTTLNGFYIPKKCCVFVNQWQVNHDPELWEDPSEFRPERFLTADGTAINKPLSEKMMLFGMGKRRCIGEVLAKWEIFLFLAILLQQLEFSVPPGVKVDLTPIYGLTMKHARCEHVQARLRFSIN

[10] = target: Luciferin 4-monooxygenase (Photinus pyralis, UniProt P08659); test: inhibition of purified Photinus pyralis luciferase – biochemical, luminescence, dose response (AID 1891)
[11] = Luminescence Cell-Based Dose Confirmation HTS to Identify Inhibitors of Platelet Dense Granule Release. [Related pubchem assays: 1663 (Primary HTS), 1678 (Summary of Project)]; type: functional
[12] = tested on: Streptococcus sp. 'group A'; test: Streptococcus pyogenes SK(-)GAS viability under kanamycin – luminescence, BacTiterGlo, confirmation, counter-screen for streptokinase expression inhibitor project, dose response (AID 1900); type: functional, organism-based
[13] = target: T5, Streptokinase A (Streptococcus pyogenes serotype M1, UniProt P10520); test: viability-normalized secreted streptokinase activity reduction – plasminogen activation absorbance, OD405, dose response (AID 1914); type: functional, Streptococcus pyogenes M1 GAS;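 further: secreted streptokinase activity via plasminogen activation per viability signal from cell pellet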
T5 sequence (P10520 whole entry): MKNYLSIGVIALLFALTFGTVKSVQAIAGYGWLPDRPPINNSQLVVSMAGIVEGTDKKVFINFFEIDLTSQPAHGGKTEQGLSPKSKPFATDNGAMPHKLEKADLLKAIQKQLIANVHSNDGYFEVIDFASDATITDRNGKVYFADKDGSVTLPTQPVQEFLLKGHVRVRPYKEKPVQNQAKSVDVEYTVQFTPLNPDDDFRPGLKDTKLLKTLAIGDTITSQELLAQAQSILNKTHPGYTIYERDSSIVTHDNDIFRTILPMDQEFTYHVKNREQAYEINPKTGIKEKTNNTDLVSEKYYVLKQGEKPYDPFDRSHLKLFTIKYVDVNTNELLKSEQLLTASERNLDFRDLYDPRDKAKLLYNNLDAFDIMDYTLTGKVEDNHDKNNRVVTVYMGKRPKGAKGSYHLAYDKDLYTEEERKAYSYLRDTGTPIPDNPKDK

[14] = tested on: Streptococcus; test: GAS UMAA2166 growth inhibition – luminescence, BacTiterGlo, counter-screen for streptokinase expression inhibitor project, dose response (AID 1915); type: functional, organism-based;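 further: potency for reduction of bacterial viability or growth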

Luciferin 4-monooxygenase, sequence (P08659 whole entry): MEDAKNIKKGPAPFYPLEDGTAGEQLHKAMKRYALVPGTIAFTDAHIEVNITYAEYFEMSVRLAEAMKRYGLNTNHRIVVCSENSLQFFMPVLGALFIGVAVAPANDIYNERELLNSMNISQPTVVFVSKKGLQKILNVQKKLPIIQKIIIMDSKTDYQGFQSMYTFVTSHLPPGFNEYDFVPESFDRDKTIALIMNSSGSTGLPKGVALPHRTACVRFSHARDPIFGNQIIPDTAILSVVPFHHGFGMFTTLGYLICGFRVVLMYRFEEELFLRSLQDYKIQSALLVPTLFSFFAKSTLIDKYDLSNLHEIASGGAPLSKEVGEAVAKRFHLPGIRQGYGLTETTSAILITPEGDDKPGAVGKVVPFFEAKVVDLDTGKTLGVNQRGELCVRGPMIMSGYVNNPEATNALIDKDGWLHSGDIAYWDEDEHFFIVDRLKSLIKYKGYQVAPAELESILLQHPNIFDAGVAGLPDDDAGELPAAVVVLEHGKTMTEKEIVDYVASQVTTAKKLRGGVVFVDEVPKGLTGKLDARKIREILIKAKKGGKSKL
Cytochrome P450 2D6, sequence (P10635 whole entry): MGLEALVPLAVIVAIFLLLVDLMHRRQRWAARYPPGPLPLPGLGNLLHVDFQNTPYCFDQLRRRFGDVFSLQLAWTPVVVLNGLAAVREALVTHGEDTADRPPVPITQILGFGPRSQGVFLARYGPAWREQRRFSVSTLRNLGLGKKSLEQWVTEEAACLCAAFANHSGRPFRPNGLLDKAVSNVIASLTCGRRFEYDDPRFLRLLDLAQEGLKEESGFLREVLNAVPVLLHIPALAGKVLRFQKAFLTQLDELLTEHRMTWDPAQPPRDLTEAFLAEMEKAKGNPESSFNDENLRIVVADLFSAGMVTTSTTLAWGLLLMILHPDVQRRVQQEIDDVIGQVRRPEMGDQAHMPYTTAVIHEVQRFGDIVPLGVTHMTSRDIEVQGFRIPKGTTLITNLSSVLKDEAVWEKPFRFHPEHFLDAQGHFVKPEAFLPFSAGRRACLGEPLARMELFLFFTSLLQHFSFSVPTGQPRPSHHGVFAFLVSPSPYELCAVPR
Cytochrome P450 2C19, sequence (P33261 whole entry): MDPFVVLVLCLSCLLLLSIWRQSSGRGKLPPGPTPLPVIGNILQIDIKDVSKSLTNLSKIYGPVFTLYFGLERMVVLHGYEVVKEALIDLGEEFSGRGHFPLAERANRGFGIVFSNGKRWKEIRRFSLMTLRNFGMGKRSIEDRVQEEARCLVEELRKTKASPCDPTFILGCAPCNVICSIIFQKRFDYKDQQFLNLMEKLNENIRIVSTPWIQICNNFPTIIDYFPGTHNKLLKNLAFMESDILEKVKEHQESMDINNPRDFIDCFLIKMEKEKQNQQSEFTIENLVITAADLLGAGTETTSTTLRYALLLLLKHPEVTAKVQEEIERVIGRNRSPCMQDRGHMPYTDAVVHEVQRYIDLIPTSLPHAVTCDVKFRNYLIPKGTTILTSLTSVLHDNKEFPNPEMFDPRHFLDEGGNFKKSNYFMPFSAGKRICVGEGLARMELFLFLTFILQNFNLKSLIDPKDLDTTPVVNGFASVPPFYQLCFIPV
Cytochrome P450 3A4, sequence (P08684 whole entry): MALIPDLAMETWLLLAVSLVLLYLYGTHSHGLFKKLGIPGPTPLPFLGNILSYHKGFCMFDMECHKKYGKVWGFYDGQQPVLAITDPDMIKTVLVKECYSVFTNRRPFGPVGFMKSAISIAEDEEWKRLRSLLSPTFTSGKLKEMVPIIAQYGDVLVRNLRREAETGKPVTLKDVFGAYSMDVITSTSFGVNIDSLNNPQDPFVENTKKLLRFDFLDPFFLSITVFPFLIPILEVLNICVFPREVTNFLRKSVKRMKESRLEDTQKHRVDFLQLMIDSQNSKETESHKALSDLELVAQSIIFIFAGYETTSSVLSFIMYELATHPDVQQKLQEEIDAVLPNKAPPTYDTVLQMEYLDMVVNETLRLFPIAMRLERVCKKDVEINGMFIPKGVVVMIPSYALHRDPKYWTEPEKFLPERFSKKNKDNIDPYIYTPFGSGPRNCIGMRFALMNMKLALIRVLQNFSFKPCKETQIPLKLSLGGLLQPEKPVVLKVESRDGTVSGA

## O=c1cc(N2CCCCC2)c(-c2ccccc2)nn1Cc1cccc(F)c1
[1]
  IC50: > 50 µM (not active)
[2]
  AC50: 4.74 µM (active)

## Cc1c(Cl)cccc1NC(=O)CC1NCCNC1=O (stereo not drawn)
[3]
  AC50: 39.8 µM (inconclusive)
[4]
  IC50: > 100 µM (inactive)
[5]
  AC50: 20 µM (inconclusive)

## CSc1nnc(C)c(/C=C/Nc2ccc(C)cc2)n1
[6]
  EC50: 14.9 µM (active)

## O=C(CCN1CCC(c2ccccc2)C1)c1ccccc1 (stereo not drawn)
[7]
  IC50: 31.7 µM (active)

## Cc1ccc(/C=C2/C(=O)NC(=O)N(CCc3ccc(F)cc3)C2=O)s1
[7]
  IC50: 39.2 µM (active)

## O=c1c2ccccc2ncn1-c1ccc(Cl)cc1Cl
[4]
  IC50: > 100 µM (inactive)

## CC(/C=C(\O)c1ccc(C)cc1)=N\c1cccc(O)c1
[1]
  IC50: 4.68 µM (not active)

## CCN(CC(=O)NCc1ccc(F)cc1)Cc1nc(O)c2ccc(Cl)cc2n1
[4]
  IC50: > 100 µM (inactive)

## Cc1ccc(NC(=O)CSc2nsc(SCC(=O)Nc3ccc(C)cc3C)c2C#N)c(C)c1
[1]
  IC50: > 50 µM (not active)

## COc1ccc2[nH]cc(CCNc3ncnc4ccc(-c5ccc(C(=O)N(C)C)cc5)cc34)c2c1
[8]
  AC50: 25.1 µM (inconclusive)
[9]
  AC50: 12.6 µM (inconclusive)

## O=C(NC1CCCCC1)N1CCC(c2nc(-c3ccc(S(=O)(=O)N4CCCC4)cc3)no2)CC1
[10]
  EC50: > 112 µM (not active)
[11]
  EC50: > 112 µM (not active)

## Clc1ccc(CNc2ccc3nnc(-c4ccccc4)n3n2)cc1
[10]
  EC50: > 112 µM (not active)
[11]
  EC50: > 112 µM (not active)

## CN(C)c1ccc(-c2cncnc2NCc2cccs2)cc1
[8]
  AC50: 39.8 µM (inconclusive)

## CNC(=O)c1c(NC(=O)c2ccc(N3C(=O)CCC3=O)cc2)sc2c1CCC(C)C2 (stereo not drawn)
[12]
  EC50: 20.7 µM (active)
[13]
  EC50: > 150 µM (not active)
[14]
  EC50: 103 µM (active)
[4]
  IC50: > 100 µM (inactive)

## CCn1nc(CCC(=O)O)c2ccccc2c1=O
[4]
  IC50: > 100 µM (inactive)

## O=C(CCCCl)Oc1ccc2cc(-c3ccc4ccccc4n3)c(=O)oc2c1
[6]
  EC50: 13.7 µM (active)

## Cc1ccc(CNC(=O)c2ccc3c(=O)n(CC4CCCO4)c(=S)[nH]c3c2)cc1 (stereo not drawn)
[1]
  IC50: 1.19 µM (not active)

## CN(CCc1ccccn1)C(=S)NC(=O)c1ccco1
[1]
  IC50: 19 µM (not active)

## COC(=O)c1cc2sccc2n1Cc1ccc(C)cc1
[4]
  IC50: > 100 µM (inactive)
